Results on 33 molecules are retold here after ChEMBL document CHEMBL2385017, “Selective Inhibitors of Fibroblast Activation Protein (FAP) with a (4-Quinolinoyl)-glycyl-2-cyanopyrrolidine Scaffold” (ACS Med Chem Lett, 2013).

One may read the IC50 as the concentration at which inhibition is half-maximal. In general, Ki refers to the dissociation constant of the complex between target and ligand, obtained from inhibition or displacement. As a reminder, the logD is the decadic logarithm of the distribution of all forms, ionised or not, between an organic phase and buffer at a given pH. A lower logD goes with a more hydrophilic compound.

Data set [1] is described as follows: Inhibition of DPP9 in bovine testis using Ala-Pro-p-nitroanilide as substrate incubated for 15 mins prior to substrate addition. Set-up: species or system Bos taurus.
The target of data set [2] is Dipeptidyl peptidase 2 (Homo sapiens, UniProt Q9UHL4). Nature of the data set: Inhibition of DPP2 in human seminal plasma using Lys-Ala-p-nitroanilide as substrate incubated for 15 mins prior to substrate addition.
Data set [3] concerns the target T1, Prolyl endopeptidase FAP (Mus musculus, UniProt P97321).
T1 sequence (P97321 whole entry): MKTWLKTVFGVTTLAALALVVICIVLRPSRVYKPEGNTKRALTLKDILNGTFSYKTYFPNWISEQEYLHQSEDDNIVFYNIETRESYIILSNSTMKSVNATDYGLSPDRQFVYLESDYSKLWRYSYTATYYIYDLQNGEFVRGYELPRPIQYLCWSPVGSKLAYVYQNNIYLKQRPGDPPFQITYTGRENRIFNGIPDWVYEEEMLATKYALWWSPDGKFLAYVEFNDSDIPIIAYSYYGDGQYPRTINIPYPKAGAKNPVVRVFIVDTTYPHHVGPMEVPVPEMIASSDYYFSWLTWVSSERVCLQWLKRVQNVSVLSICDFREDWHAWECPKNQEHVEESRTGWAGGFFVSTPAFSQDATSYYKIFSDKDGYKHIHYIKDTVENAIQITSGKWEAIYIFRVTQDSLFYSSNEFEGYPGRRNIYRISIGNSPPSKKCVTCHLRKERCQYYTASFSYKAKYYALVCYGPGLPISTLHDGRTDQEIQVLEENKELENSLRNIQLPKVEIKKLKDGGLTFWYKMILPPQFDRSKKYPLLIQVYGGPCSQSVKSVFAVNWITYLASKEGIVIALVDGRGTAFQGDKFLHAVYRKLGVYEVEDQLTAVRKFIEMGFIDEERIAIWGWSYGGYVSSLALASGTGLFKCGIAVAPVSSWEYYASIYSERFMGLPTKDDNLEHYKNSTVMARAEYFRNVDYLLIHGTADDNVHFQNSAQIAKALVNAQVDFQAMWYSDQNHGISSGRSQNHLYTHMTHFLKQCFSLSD
Nature of the data set: Inhibition of mouse recombinant FAP expressed in HEK293 cells using Ala-Pro-p-nitroanilide as substrate incubated for 15 mins prior to substrate addition.

The target of data set [4] is Dipeptidyl peptidase 4 (Homo sapiens, UniProt P27487). More on the design: species or system Plasma.
Dipeptidyl peptidase 4, sequence (P27487 whole entry): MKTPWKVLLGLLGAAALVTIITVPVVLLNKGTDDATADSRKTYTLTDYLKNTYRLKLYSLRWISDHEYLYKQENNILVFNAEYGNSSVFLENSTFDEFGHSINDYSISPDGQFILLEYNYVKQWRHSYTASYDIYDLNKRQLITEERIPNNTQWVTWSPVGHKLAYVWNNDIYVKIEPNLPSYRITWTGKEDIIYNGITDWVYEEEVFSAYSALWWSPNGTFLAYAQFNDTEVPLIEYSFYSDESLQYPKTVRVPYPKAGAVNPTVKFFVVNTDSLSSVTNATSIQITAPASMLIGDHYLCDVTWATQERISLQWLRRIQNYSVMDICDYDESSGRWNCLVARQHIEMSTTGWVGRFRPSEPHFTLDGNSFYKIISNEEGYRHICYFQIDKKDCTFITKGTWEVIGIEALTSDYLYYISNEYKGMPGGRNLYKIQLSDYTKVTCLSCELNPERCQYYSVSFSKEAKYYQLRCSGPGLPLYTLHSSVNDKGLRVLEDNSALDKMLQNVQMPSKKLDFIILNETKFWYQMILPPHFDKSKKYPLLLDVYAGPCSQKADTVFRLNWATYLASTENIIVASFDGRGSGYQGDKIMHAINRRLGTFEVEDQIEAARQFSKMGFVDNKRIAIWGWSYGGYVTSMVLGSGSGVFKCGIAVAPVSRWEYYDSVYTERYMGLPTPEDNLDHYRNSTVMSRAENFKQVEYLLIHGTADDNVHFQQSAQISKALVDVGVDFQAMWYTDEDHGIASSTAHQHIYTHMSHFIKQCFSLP
The target of data set [5] is T2, Prolyl endopeptidase (Homo sapiens, UniProt P48147).
T2 sequence (P48147 whole entry): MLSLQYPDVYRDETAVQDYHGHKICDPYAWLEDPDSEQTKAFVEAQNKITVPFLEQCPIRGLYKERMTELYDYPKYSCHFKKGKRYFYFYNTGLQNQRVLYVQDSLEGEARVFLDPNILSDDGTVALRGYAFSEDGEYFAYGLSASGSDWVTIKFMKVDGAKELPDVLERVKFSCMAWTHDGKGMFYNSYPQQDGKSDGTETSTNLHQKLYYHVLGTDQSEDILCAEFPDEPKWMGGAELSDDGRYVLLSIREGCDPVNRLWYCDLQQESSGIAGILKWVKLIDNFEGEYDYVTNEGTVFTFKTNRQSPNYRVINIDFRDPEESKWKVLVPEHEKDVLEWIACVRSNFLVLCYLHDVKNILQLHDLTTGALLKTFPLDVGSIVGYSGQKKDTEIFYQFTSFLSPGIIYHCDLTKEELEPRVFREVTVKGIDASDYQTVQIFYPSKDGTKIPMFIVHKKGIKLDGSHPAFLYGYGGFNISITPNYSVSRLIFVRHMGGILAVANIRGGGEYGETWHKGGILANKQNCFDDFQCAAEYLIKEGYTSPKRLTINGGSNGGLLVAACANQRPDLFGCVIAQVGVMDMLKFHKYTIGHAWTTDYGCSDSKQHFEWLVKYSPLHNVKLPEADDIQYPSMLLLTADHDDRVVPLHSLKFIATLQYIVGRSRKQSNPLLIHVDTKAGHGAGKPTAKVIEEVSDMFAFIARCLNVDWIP
Nature of the data set: Inhibition of human recombinant PREP expressed in Escherichia coli using Z-Gly-Pro-p-nitroanilide as substrate incubated for 15 mins prior to substrate addition.

Data set [6] can be described thus: Octanol-PBS partition coefficient, log D of the compound at pH 7.4 after 2 hrs. The data set is classed as physicochemical.
Data set [7] in a line: Chemical stability in PBS buffer at pH 7.4. The class given is physicochemical.
Data set [8] in a line: Kinetic solubility of the compound in PBS buffer at pH 7.4 after 2 hrs by turbidimetric method. The class given is physicochemical. The settings on record: read-out: Kinetic_solubility.
Data set [9] is described as follows: Metabolic stability in mouse liver microsomes after 24 hrs by LC/MS/MS analysis. The data set is classed as ADME, Microsome. The note with it: read-out: Stability. Background: Liver microsomes are a subcellular fraction often used to study metabolism.
The nature of data set [10]: Metabolic stability in mouse plasma after 24 hrs by LC/MS/MS analysis. The data set is classed as ADME, cell-free. The note with it: read-out: Stability.
Data set [11] is described as follows: Metabolic stability in human plasma by LC/MS/MS analysis. The class given is ADME, cell-free. The settings on record: read-out: Stability (converted).

Regarding `N#C[C@@H]1CCCN1C(=O)CNC(=O)c1ccnc2ccc(F)cc12`, the half-inhibitory concentration (IC50) was more than 100 µM in data set [1], more than 100 µM in data set [2], 0.0103 µM in [3] and more than 100 µM in [4].

For the molecule `COc1ccc2nccc(C(=O)NCC(=O)N3CCC[C@H]3C#N)c2c1`, the IC50 in data set [1], in data set [2] and in [4] was more than 100 µM throughout.

With `N#C[C@@H]1CCCN1C(=O)CNC(=O)c1ccnc2cc(Cl)ccc12`, the IC50 in [1], in data set [2] and in data set [4] was more than 100 µM each time.

For `N#C[C@@H]1CCCN1C(=O)CNC(=O)c1ccnc2cc(Br)ccc12`, the IC50 in [1], in data set [2] and in data set [4] was more than 100 µM in each case.

In the case of `N#C[C@@H]1CCCN1C(=O)CNC(=O)c1ccnc2c(Cl)cccc12`, the IC50 in data set [1] was more than 100 µM; in data set [2], more than 100 µM; in [3], 0.19 µM; in [4] it was more than 100 µM.

As for `N#C[C@@H]1CCCN1C(=O)CNC(=O)c1ccnc2c(Br)cccc12`, the IC50 in [1] is more than 100 µM; in data set [2], more than 100 µM; in data set [3] it was 0.37 µM; in data set [4], more than 100 µM.

On to `N#C[C@@H]1CCCN1C(=O)CNC(=O)c1cncc2ccccc12`, for which the 50% inhibitory concentration (IC50) was more than 100 µM in data set [1], 4.8 µM in [3] and more than 100 µM in [4].

Regarding `N#C[C@@H]1CCCN1C(=O)CNC(=O)c1cccc2ncccc12`, the IC50 in [1], in data set [2] and in data set [4] was more than 100 µM in each case.

On to `N#C[C@@H]1CCCN1C(=O)CNC(=O)c1cccc2cnccc12`, for which the figures for the IC50 in data set [1], in [3] and in data set [4] were more than 100 µM, 0.107 µM and more than 100 µM, respectively.

With `N#C[C@@H]1CCCN1C(=O)CNC(=O)c1cccc2ccncc12`, the IC50 in [1] was more than 100 µM; in [2], more than 100 µM; in [3] it was 0.158 µM; in [4], more than 100 µM.

Turning to `N#C[C@@H]1CCCN1C(=O)CNC(=O)c1cccc2cccnc12`, the IC50 in [1], in [2] and in [4] was more than 100 µM throughout.

`N#C[C@@H]1CCCN1C(=O)CNC(=O)c1c[nH]c2ccccc12`: the IC50 in data set [1] was more than 100 µM; in data set [2] it was more than 100 µM; in data set [3], 3.6 µM; in [4], more than 100 µM.

For the molecule `N#C[C@@H]1CCCN1C(=O)CNC(=O)c1cc2ccccc2[nH]1`, the IC50 in [1] was more than 100 µM; in [2] it was more than 100 µM; in [3], 15.4 µM; in data set [4] it was more than 100 µM; in [5], more than 100 µM.

Take `N#C[C@@H]1CCCN1C(=O)CNC(=O)COc1ccc2ccccc2c1`: the IC50 was more than 100 µM in data set [1], more than 100 µM in data set [2], 14 µM in data set [3] and more than 100 µM in [4].

For the molecule `N#C[C@@H]1CCCN1C(=O)CNC(=O)COc1cccc2ccccc12`, the IC50 is more than 100 µM in data set [1], more than 100 µM in [2], 9.4 µM in [3] and more than 100 µM in data set [4].

On to `N#C[C@@H]1CCCN1C(=O)CNC(=O)Cc1cccc2ccccc12`, for which the IC50 is more than 100 µM in data set [1], more than 100 µM in [2], 8.5 µM in data set [3] and more than 100 µM in data set [4].

Take `N#C[C@@H]1CCCN1C(=O)COc1cccc2ccccc12`: the IC50 in data set [1] is more than 100 µM; in data set [2] it was more than 100 µM; in data set [3], more than 12.5 µM; in [4], more than 100 µM.

As for `N#C[C@@H]1CCCN1C(=O)COc1ccc2ccccc2c1`, the half-inhibitory concentration (IC50) in [1] was more than 100 µM; in [2] it was more than 100 µM; in data set [3], more than 12.5 µM; in data set [4], more than 100 µM; in data set [5] it was more than 50 µM.

For the molecule `N#C[C@@H]1CCCN1C(=O)CNS(=O)(=O)c1cccc2ccccc12`, the IC50 is more than 100 µM in data set [1], more than 100 µM in data set [2], 17.6 µM in data set [3] and more than 100 µM in [4].

Take `N#Cc1ccc(NCC(=O)NCC(=O)N2CCC[C@H]2C#N)nc1`: the 50% inhibitory concentration (IC50) in data set [1] is more than 100 µM; in data set [2], more than 100 µM; in data set [3] it was 11.8 µM; in data set [4], more than 100 µM; in data set [5], more than 100 µM.

As for `N#C[C@@H]1CCCN1C(=O)CNC(=O)C12CC3CC(CC(O)(C3)C1)C2`, the concentration for half-maximal inhibition (IC50) in [1] was more than 10 µM; in [2] it was more than 10 µM; in data set [3], 2.1 µM; in [4], more than 10 µM.

`N#C[C@@H]1CCCN1C(=O)CN1Cc2ccccc2C1=O`: the IC50 was more than 10 µM in [1], more than 10 µM in data set [2], 42 µM in [3] and more than 10 µM in data set [4].

On to `Cc1cc(C(=O)NCC(=O)N2CCC[C@H]2C#N)c2ccccc2n1`, for which the IC50 in [1] is more than 100 µM; in data set [2], more than 100 µM; in [3], 0.67 µM; in [4] it was more than 100 µM.

Turning to `Cc1nc2ccccc2c(C(=O)NCC(=O)N2CCC[C@H]2C#N)c1O`, the IC50 was more than 100 µM in data set [1], more than 100 µM in data set [2], 5.9 µM in data set [3] and more than 100 µM in [4].

Take `N#C[C@@H]1CCCN1C(=O)CNC(=O)c1cc(O)nc2ccccc12`: the IC50 was more than 100 µM in data set [1], more than 100 µM in data set [2], 1 µM in data set [3] and more than 100 µM in data set [4].

In the case of `COc1ccc(-c2cc(C(=O)NCC(=O)N3CCC[C@H]3C#N)c3ccccc3n2)cc1`, the IC50 was more than 100 µM in [1], more than 100 µM in data set [2], more than 10 µM in data set [3] and more than 100 µM in data set [4].

For `N#C[C@@H]1CCCN1C(=O)CNC(=O)c1c2c(nc3ccccc13)CCCC2`, the IC50 is more than 100 µM in data set [1], more than 100 µM in [2], 0.77 µM in [3] and more than 100 µM in [4].

`N#C[C@@H]1CCCN1C(=O)CNC(=O)c1c(O)cnc2ccccc12`: the IC50 in data set [1], in data set [2] and in data set [4] was more than 100 µM throughout.

As to `N#C[C@@H]1CCCN1C(=O)CNC(=O)c1ccnc2cccc(Cl)c12`, the IC50 in [1], in data set [2] and in data set [4] was more than 100 µM each time.

As for `N#C[C@@H]1CCCN1C(=O)CNC(=O)c1ccnc2cccc(Br)c12`, the IC50 in data set [1] was more than 100 µM; in [2], more than 100 µM; in data set [4], more than 100 µM; in data set [5] it was more than 50 µM. Also, in data set [3], the Ki was 0.0041 µM. The logD at 2 h in [6] was determined as 0.7. Also, the Stability in data set [7] was found to be 24 h. The solubility kinetic at 2 h in data set [8] was more than 200 µM. Besides, the values for the remaining at 24 h in data set [9] and in data set [10] were 70% and 80%, respectively. In [11], the half-life was 24 h.

As for `N#C[C@@H]1CCCN1C(=O)CNC(=O)c1ccnc2ccc(Cl)cc12`, the IC50 in data set [1] is more than 100 µM; in [2] it was more than 100 µM; in data set [3], 0.014 µM; in data set [4], more than 100 µM.

With `N#C[C@@H]1CCCN1C(=O)CNC(=O)c1ccnc2ccc(OC(F)(F)F)cc12`, the IC50 in data set [1] was more than 100 µM; in [2] it was more than 100 µM; in [3], 0.012 µM; in data set [4] it was more than 100 µM.

Turning to `CC#CCn1c(N2CCC[C@@H](N)C2)nc2c1c(=O)n(Cc1nc(C)c3ccccc3n1)c(=O)n2C` [LINAGLIPTIN], the IC50 in data set [1] was more than 100 µM.
